Source: BindingDB's records for patent US20250059156 (Sensorium Therapeutics, 2025)

Target: Sodium-dependent serotonin transporter (Homo sapiens, UniProt P31645)
Test: SERT Inhibition Assay
Method: SERT inhibition was measured using a Neruotransmitter Transportation Fluorescence assay. […] Compounds were prepared by in assay buffer (20 mM HEPES, 0.1% BSA). The compounds were added to the plated cells and incubated for 30 minutes at 37° C. 25 μL of dye solution (Molecular Devices Neurotransmitter Transporter Uptake Assay Kit) was added per well and incubated for 30 minutes at 37° C. The plates were then read on a plate reader.

Sequence of Sodium-dependent serotonin transporter (P31645 whole entry): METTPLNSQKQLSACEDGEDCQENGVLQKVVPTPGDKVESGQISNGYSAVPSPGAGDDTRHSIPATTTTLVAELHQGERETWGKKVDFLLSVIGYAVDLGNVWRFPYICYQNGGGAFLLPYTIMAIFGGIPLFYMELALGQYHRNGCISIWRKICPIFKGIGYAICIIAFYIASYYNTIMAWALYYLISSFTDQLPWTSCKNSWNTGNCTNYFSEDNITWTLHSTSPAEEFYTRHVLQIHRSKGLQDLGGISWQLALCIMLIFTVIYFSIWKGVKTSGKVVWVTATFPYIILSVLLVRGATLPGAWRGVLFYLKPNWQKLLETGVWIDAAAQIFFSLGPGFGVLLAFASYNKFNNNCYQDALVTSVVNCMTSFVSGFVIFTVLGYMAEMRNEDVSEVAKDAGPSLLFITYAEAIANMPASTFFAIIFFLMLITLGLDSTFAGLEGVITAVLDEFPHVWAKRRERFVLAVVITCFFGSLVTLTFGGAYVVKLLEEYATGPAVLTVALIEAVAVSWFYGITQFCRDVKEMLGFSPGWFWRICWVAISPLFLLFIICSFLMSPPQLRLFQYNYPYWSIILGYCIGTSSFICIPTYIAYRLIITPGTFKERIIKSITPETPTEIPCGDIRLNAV

SMILES	IC50
COc1ccc([C@]23CCN(C)[C@H]2[C@H]2CCC[C@@H]3CC2=O)cc1OC [US20250059156, Compound 220]	100 to 500 nM
COc1ccc([C@@]23CCN(C)[C@@H]2[C@@H]2CCC[C@H]3CC2=O)cc1OC [US20250059156, Compound 221]	< 50 nM
